Reference: patent publication USRE40086E1, “Method for treating bacterial infection with novel 7-substituted-9-substituted amino 6-demethyl-6-deoxytetracyclines” (Wyeth Holdings Corporation, priority 1991, dated 2008)

Key:
[1] = tested on: Ps. acruginosa ATCC 27853; assay: MIC, agar dilution (Table IA); type: cell-based; details: unit assumed
[2] = tested on: S. haemolyticus AVAH 88-3; assay: MIC, agar dilution; type: cell-based; details: S. hemolyticus AVHAH 88-3; Table IA; unit assumed
E. coli UBMS 90-5 = assay: MIC, agar dilution (Table IA); type: cell-based; details: unit assumed
[3] = tested on: S. aureus IVES 1983 (meth. resistant); assay: MIC, agar dilution; type: cell-based; details: S. aureus IVES 1983; Table IA; unit assumed
[4] = tested on: TetM S30 extract, derivative of E. coli MRE600 containing the tetM determinant; assay: E. coli in vitro transcription and protein translation, 35S-methionine incorporation (Table VIII)
[5] = tested on: S. aureus UBMS 88-4 (Sensitive); assay: MIC, agar dilution; type: cell-based; details: S. aureus UBMS 88-4; Table IA; unit assumed
S. mariescens FDOR 8733 = assay: MIC, agar dilution (Table IA); type: cell-based; details: unit assumed
E. coli #311 (MP) = assay: MIC, agar dilution (Table IA); type: cell-based; details: unit assumed
[6] = tested on: S. aureus UBMS 88-5 (tetM); assay: MIC, agar dilution; type: cell-based; details: S. aureus UBMS 88-5 TetM; Table IA; unit assumed
E. coli J3272 Tet sens. = assay: MIC, agar dilution (Table IA); type: cell-based; details: unit assumed
[7] = tested on: S. aureus ATCC 29213 (Sensitive); assay: MIC, agar dilution; type: cell-based; details: S. aureus ATCC 29213; Table IA; unit assumed
[8] = tested on: S. aureus UBMS 90-2 (tetM); assay: MIC, agar dilution; type: cell-based; details: S. aureus UBMS 90-2 TetM; Table IA; unit assumed
E. coli MC4100 TetB = assay: MIC, agar dilution (Table IA); type: cell-based; details: unit assumed
E. coli UBMS 88-1 (tetB) = assay: MIC, agar dilution; type: cell-based; details: E. coli UBMS 88-1 TetB; Table IA; unit assumed
[9] = tested on: S. aureus IVES 2943 (meth. resistant); assay: MIC, agar dilution; type: cell-based; details: S. aureus IVES 2943; Table IA; unit assumed
E. coli UBMS 90-4 (tetM) = assay: MIC, agar dilution; type: cell-based; details: E. coli UBMS 90-4 TetM; Table IA; unit assumed
E. faecalis ATCC 29212 = assay: MIC, agar dilution; type: cell-based; details: E. faecalis ATCC 29212; Table IA; unit assumed
E. coli ATCC 25922 = assay: MIC, agar dilution; type: cell-based; details: E. coli ATCC 25922; Table IA; unit assumed
S. aureus NEMC 8769/89-4 = assay: MIC, agar dilution (Table IA); type: cell-based; details: unit assumed
[10] = tested on: S. aureus Smith (Sensitive); assay: MIC, agar dilution; type: cell-based; details: S. aureus SMITH (MP); Table IA; unit assumed
E. coli BAJ9003 = assay: MIC, agar dilution (Table IA); type: cell-based; details: unit assumed
S. aureus ROSE (MP) = assay: MIC, agar dilution (Table IA); type: cell-based; details: unit assumed
E. coli J2175 = assay: MIC, agar dilution (Table IA); type: cell-based; details: unit assumed
[11] = tested on: S. aureus UBMS 88-7 (tetK); assay: MIC, agar dilution; type: cell-based; details: S. aureus UBMS 88-7 TetK; Table IA; unit assumed
[12] = tested on: Wild Type S30 extract, E. coli strain MRE600 (tetracycline sensitive); assay: E. coli in vitro transcription and protein translation, 35S-methionine incorporation (Table VIII)
E. coli J3272 TetD = assay: MIC, agar dilution (Table IA); type: cell-based; details: unit assumed
[13] = tested on: S. aureus UBMS 90-1 (tetM); assay: MIC, agar dilution; type: cell-based; details: S. aureus UBMS 90-1 TetM; Table IA; unit assumed
[14] = tested on: X. maltophilia NEMC 87210; assay: MIC, agar dilution (Table IA); type: cell-based; details: unit assumed
E. coli PRP1 TetA = assay: MIC, agar dilution (Table IA); type: cell-based; details: unit assumed
E. coli UBMS 89-1 (tetM) = assay: MIC, agar dilution; type: cell-based; details: E. coli UBMS 89-1 TetM; Table IA; unit assumed
E. faecalis 12201 = assay: MIC, agar dilution; type: cell-based; details: Enterococcus 12201; Table IA; unit assumed
E. coli J3272 TetC = assay: MIC, agar dilution (Table IA); type: cell-based; details: unit assumed
[15] = tested on: E. coli UBMS 89-2 (Sensitive); assay: MIC, agar dilution; type: cell-based; details: E. coli UBMS 89-2 Tet Sens.; Table IA; unit assumed
[16] = tested on: S. aureus UBMS 90-3 (Sensitive); assay: MIC, agar dilution; type: cell-based; details: S. aureus UBMS 90-3; Table IA; unit assumed

| SMILES | Antibacterial activity (MIC) [1] [µg/mL] | Antibacterial activity (MIC) [2] [µg/mL] | Antibacterial activity (MIC) (E. coli UBMS 90-5) [µg/mL] | Antibacterial activity (MIC) [3] [µg/mL] | % INHIBITION TetM S30 ([4]; 0.06 mg/ml) [%] | % INHIBITION TetM S30 ([4]; 0.2 mg/ml) [%] | % INHIBITION TetM S30 ([4]; 1.0 mg/ml) [%] | Antibacterial activity (MIC) [5] [µg/mL] | Antibacterial activity (MIC) (S. mariescens FDOR 8733) [µg/mL] | Antibacterial activity (MIC) (E. coli #311 (MP)) [µg/mL] | Antibacterial activity (MIC) [6] [µg/mL] | Antibacterial activity (MIC) (E. coli J3272 Tet sens.) [µg/mL] | Antibacterial activity (MIC) [7] [µg/mL] | Antibacterial activity (MIC) [8] [µg/mL] | Antibacterial activity (MIC) (E. coli MC4100 TetB) [µg/mL] | Antibacterial activity (MIC) (E. coli UBMS 88-1 (tetB)) [µg/mL] | Antibacterial activity (MIC) [9] [µg/mL] | Antibacterial activity (MIC) (E. coli UBMS 90-4 (tetM)) [µg/mL] | Antibacterial activity (MIC) (E. faecalis ATCC 29212) [µg/mL] | Antibacterial activity (MIC) (E. coli ATCC 25922) [µg/mL] | further results |
| --- | --- | --- | --- | --- | --- | --- | --- | --- | --- | --- | --- | --- | --- | --- | --- | --- | --- | --- | --- | --- | --- |
| CN(C)c1cc(NC(=O)CNC2CC2)c(O)c2c1CC1CC3C(N(C)C)C(O)=C(C(N)=O)C(=O)C3(O)C(O)=C1C2=O.Cl.Cl (stereo not drawn) [QQ, [4S-(4alpha,12aalpha))-9[[(Cyclopropylamino)acetyl)amino]-4,7-Bis(dimethylamino)-1,4,4a,5,5a,6,11,12a-octahydro-3,10,12,12a-tetrahydroxy-1,11-dioxo-2-naphthacenecarboxamide dihydrochloride] | > 32 | 2 | 2 | 8 | 85 | 95 | 99 | 0.5 | > 32 | 2 | 0.5 | 2 | 0.5 | 0.5 | 2 | 4 | 16 | 2 | 0.25 | 2 | Antibacterial activity (MIC) (S. aureus NEMC 8769/89-4): 0.12 µg/mL; Antibacterial activity (MIC) [10]: 0.25 µg/mL; Antibacterial activity (MIC) (E. coli BAJ9003): 0.25 µg/mL; Antibacterial activity (MIC) (S. aureus ROSE (MP)): 16 µg/mL; Antibacterial activity (MIC) (E. coli J2175): 2 µg/mL; Antibacterial activity (MIC) [11]: 4 µg/mL; % INHIBITION Wild Type S30 ([12]; 0.06 mg/ml): 92%; % INHIBITION Wild Type S30 ([12]; 0.2 mg/ml): 97%; % INHIBITION Wild Type S30 ([12]; 1.0 mg/ml): 99%; Antibacterial activity (MIC) (E. coli J3272 TetD): 2 µg/mL; Antibacterial activity (MIC) [13]: 0.5 µg/mL; Antibacterial activity (MIC) [14]: 2 µg/mL; Antibacterial activity (MIC) (E. coli PRP1 TetA): 32 µg/mL; Antibacterial activity (MIC) (E. coli UBMS 89-1 (tetM)): 1 µg/mL; Antibacterial activity (MIC) (E. faecalis 12201): 0.5 µg/mL; Antibacterial activity (MIC) (E. coli J3272 TetC): 8 µg/mL; Antibacterial activity (MIC) [15]: 2 µg/mL; Antibacterial activity (MIC) [16]: 0.5 µg/mL |
| CCNCC(=O)Nc1cc(N(C)C)c2c(c1O)C(=O)C1=C(O)[C@]3(O)C(=O)C(C(N)=O)=C(O)[C@@H](N(C)C)C3CC1C2.Cl.Cl (stereo partly shown) [OO] | 16 | 1 | 1 | 8 | 87 | 95 | 99 | 1 | 8 | 1 | 1 | 1 | 1 | 0.5 | 1 | 1 | 8 | 0.5 | 0.25 | 1 | Antibacterial activity (MIC) (S. aureus NEMC 8769/89-4): 0.5 µg/mL; Antibacterial activity (MIC) [10]: 0.5 µg/mL; Antibacterial activity (MIC) (E. coli BAJ9003): 0.12 µg/mL; Antibacterial activity (MIC) (S. aureus ROSE (MP)): 8 µg/mL; Antibacterial activity (MIC) (E. coli J2175): 1 µg/mL; Antibacterial activity (MIC) [11]: 8 µg/mL; % INHIBITION Wild Type S30 ([12]; 0.06 mg/ml): 94%; % INHIBITION Wild Type S30 ([12]; 0.2 mg/ml): 97%; % INHIBITION Wild Type S30 ([12]; 1.0 mg/ml): 99%; Antibacterial activity (MIC) (E. coli J3272 TetD): 0.5 µg/mL; Antibacterial activity (MIC) [13]: 1 µg/mL; Antibacterial activity (MIC) [14]: 2 µg/mL; Antibacterial activity (MIC) (E. coli PRP1 TetA): 2 µg/mL; Antibacterial activity (MIC) (E. coli UBMS 89-1 (tetM)): 1 µg/mL; Antibacterial activity (MIC) (E. faecalis 12201): 0.25 µg/mL; Antibacterial activity (MIC) (E. coli J3272 TetC): 2 µg/mL; Antibacterial activity (MIC) [15]: 1 µg/mL; Antibacterial activity (MIC) [16]: 0.5 µg/mL |
